Laboratory results from patent US12070505B2, “Targeted peptide-drug conjugates” (priority 2021, dated 2024).
Converted amounts (≈) assume the structure as drawn. “And” between values parts separate entries of the source, which are not always exact repeats. Equal values may be shown once.

Key:
[1] = tested on: MES-SA/MX2 cells; assay: LC50 by CCK-8 assay, Dox-resistant MES-SA/MX2; assay type: cell-based; settings: FIG. 10: after 72 h
Protocol: (§1) Dox-resistant Cell Lines. Acquired resistance to Dox was induced in wild-type triple-negative breast cancer cell line MDA-MB-231 (MDA-231WT) as described before (Aliabadi, H. M.; et al. J. Control. Release 172:219-228, 2013, which is incorporated herein by reference). Briefly, MDA-231WT cells were exposed to Dox at an initial concentration of 0.05 μg/mL for one week or three consecutive expansions (whichever came later). […] Resistance induction was confirmed via calculation of LC50 following a sigmoidal effect model explained elsewhere (Bousoik, E.; et al. Front. Oncol. 9:1070, 2019, which is incorporated herein by reference) and determination of P-glycoprotein (P-gp) expression.
The cytotoxicity of the peptide-Dox conjugate in resistant triple-negative breast cancer and uterine sarcoma cell lines (MDA-231R, MDA-231WT, and MES-SA/MX2) was evaluated by a Cell Counting 8 (CCK8) KIT. The peptide-Dox conjugate was added to the cells in triplicate with different concentrations (0-40 μM). […] After this incubation period, 10 μL of CCK8 reagent was added to each well, and plates were incubated at the same conditions for 2 h. The absorbance of each well was determined at 450 nm using the SpectraMAX M5 microplate reader. […]
Efficiency in Dox-Resistant Cells. […] The cell viability was determined after this incubation period using the CCK-8 assay, as explained above. […]

[2] = tested on: MES-SA/MX2 cells; assay: MTS cytotoxicity assay of [(WR)8WKβA]-Dox, MES-SA/MX2; settings: 5 μM
Protocol: (§2) Cytotoxic activity of the synthesized conjugate and noncovalent mixtures of cyclic [WR]9+Dox was determined in SK-OV-3, MDA-MB-231, MCF-7, MES-SA/MX2, and H9C2 cells. […] An appropriate growth medium was used for each cell line (for SK-OV-3: McCoy's […] with L-glutamine containing fetal bovine serum (FBS) (10%) and penicillin or streptomycin (1%); for MDA-MB-231 and MCF-7 cells: DMEM/F12 (1:1) (1×) with L-Glutamine and 15 mM HEPES containing FBS (10%) and penicillin or streptomycin (1%), and for MES-SA/MX2 and H9C2 cells: Minimum Essential Medium Eagle with Earle's salts and sodium bicarbonate, without L-glutamine containing FBS (10%), and penicillin or streptomycin (1%)). The cells were seeded in a complete growth medium 24 h prior to the experiment. […] The incubation was continued for 3 h.

[3] = tested on: CCRF-CEM cells; assay: Cytotoxicity, MTS cell viability assay, CCRF-CEM; settings: 5 μM
Protocol: (§5) In Vitro Cytotoxicity Assay of Peptide-Drug Conjugates. […] In brief, CCRF-CEM cells were seeded at 50,000 cells in 0.1 mL per well in 98-well plates. In the case of other cell lines, the cells were seeded at 5,000 cells (0.1 mL per well in 96-well plates). […] Dox (5 μM) was used as a positive control, while water and cell culture medium were used as negative controls. The compounds were dissolved in water; water was used as a negative control to normalize the data. After the incubation period, MTS reagent (20 μL) was added to each well. The incubation was continued for 2 h. Cell viability was then determined by determination of the fluorescence intensity at 490 nm using a SpectraMax M2 microplate spectrophotometer. The percentage of cell viability was then calculated using the following equation: [(OD value of cells treated with the compound)−(OD value of culture medium)]/[(OD value of control cells)−(OD value of culture medium)]×100% (FIGS. 6-9).

[4] = tested on: SK-OV-3 cells; assay: Cytotoxicity, MTS cell viability assay, SK-OV-3 (Example 1)
Protocol: as §5

[5] = tested on: MDA-231R cells; assay: LC50 by CCK-8 assay, Dox-resistant MDA-231R; assay type: cell-based
Protocol: as §1
(§3) The cytotoxicity of the peptide-Dox conjugate in resistant triple-negative breast cancer and uterine sarcoma cell lines (MDA-231R, MDA-231WT, and MES-SA/MX2) was evaluated by a Cell Counting 8 (CCK8) KIT. The peptide-Dox conjugate was added to the cells in triplicate with different concentrations (0-40 μM). Cells were incubated at 37° C. and 5% CO2 for 24 h. After this incubation period, 10 μL of CCK8 reagent was added to each well, and plates were incubated at the same conditions for 2 h. The absorbance of each well was determined at 450 nm using the SpectraMAX M5 microplate reader. After subtracting the signal from blank wells that contain medium without cells in the plate with CCK-8 solution added, the results were normalized to cells treated with normal saline (considered as 100%)
(§4) Efficiency in Dox-Resistant Cells. In order to compare the cytotoxic effect of free and peptide-conjugated Dox in Dox-resistant cells, MDA-231WT (as a Dox-sensitive cell line as control) and MDA-231R and MES-SA/MX2 cells as Dox-resistant cells were exposed to a wide range of Dox (or Dox-equivalent for the peptide-conjugated drug) concentrations (0.05-40 μM). Cells were seeded in 96-well plates with approximately 50% confluency and were incubated for 24 h in 37° C. and 5% CO2. […] The cell viability was determined after this incubation period using the CCK-8 assay, as explained above. […]

[6] = tested on: SK-OV-3 cells; assay: MTS cytotoxicity assay of [(WR)8WKβA]-Dox, SK-OV-3; settings: 5 μM, 72 h
Protocol: as §2

[7] = tested on: MDA-MB-231 cells; settings: naïve MDA231 cells, previous study (Aliabadi et al, 2013); cited from earlier work
[8] = tested on: uterine sarcoma cells (MES-SA/MX2); settings: 5 μM
Protocol: as §5

[9] = tested on: MDA-MB-231 cells; assay: MTS cytotoxicity assay of [(WR)8WKβA]-Dox, MDA-MB-231; settings: 5 μM
Protocol: as §2

[10] = tested on: H9C2 cells; assay: Cytotoxicity, MTS assay, normal heart muscle cells (Example 1); settings: 5 μM
Protocol: (§6) In Vitro Cytotoxicity Assay of Peptide-Drug Conjugates. The cytotoxicity of the compounds was determined by using human leukemia cell line (CCRF-CEM), human ovarian adenocarcinoma cells (SKOV-3) cells, kidney cell line (LLC-PK1), gastric adenocarcinoma cells (AGS), and heart/myocardium cells (H9C2) to evaluate the toxicity of the generated peptides according to a previously reported procedure (Rahman, A.; et al. Proc. Am. Assoc. Cancer Res. 26:2295-2299, 1985, which is incorporated herein by reference). In brief, CCRF-CEM cells were seeded at 50,000 cells in 0.1 mL per well in 98-well plates. In the case of other cell lines, the cells were seeded at 5,000 cells (0.1 mL per well in 96-well plates). The cells were seeded in medium (RPMI-1640 containing FBS (10%)), 24 h prior to the experiment. The compounds at different concentrations (10-50 μM) were added to each well in triplicate and incubated for 24 and 72 h at 37° C. in a humidified atmosphere of 5% CO2. Dox (5 μM) was used as a positive control, while water and cell culture medium were used as negative controls. The compounds were dissolved in water; water was used as a negative control to normalize the data. After the incubation period, MTS reagent (20 μL) was added to each well. The incubation was continued for 2 h. Cell viability was then determined by determination of the fluorescence intensity at 490 nm using a SpectraMax M2 microplate spectrophotometer.

[11] = tested on: MDA-231WT cells; assay: LC50 by CCK-8 assay, wild-type cells; assay type: cell-based; settings: MDA-231WT (wild type); FIG. 10: after 72 h
Protocol: as §1, §3, §4

[12] = tested on: LLC-PK1 kidney cells; assay: Cytotoxicity, MTS assay, normal kidney cells; settings: 5 μM
Protocol: as §6

## COc1cccc2c1C(=O)c1c(O)c3c(c(O)c1C2=O)C[C@@](O)(C(=O)CO)C[C@@H]3O[C@H]1C[C@H](N)[C@H](O)[C@H](C)O1 [Dox, doxorubicin, reference compound]
[1]
  CC50: 41 µM
[2]; 1 μM, 10 μM, or 20 μM
  efficiency against MES-SA/MX2: did not show significant efficiency
[2]; MES-SA/MX2
  inhibition of cell viability/proliferation: 15%
[3]
  Cell Viability (%) after 24 h: 48 ± 2%
  Cell Viability (%) after 72 h: 15 ± 3%
[3]; 24 h
  reduction of cell survival/viability: 52%
[3]; 72 h
  reduction of cell survival/viability: 85%
[4]; 5 μM
  Cell Viability (%) after 24 h: 73 ± 2%
  Cell Viability (%) after 72 h: 67 ± 3%
[4]; 5 μM, 24 h
  reduction of cell survival/viability: 27% and 30%
[4]; 5 μM, 72 h
  reduction of cell survival/viability: 33%
[4]; 10 μM
  Cell Viability (%) after 24 h: 71 ± 3%
  Cell Viability (%) after 72 h: 64 ± 1%
[4]; Dox alone 5 and 10 μM
  cytotoxicity: 27-36%
[5]; MDA-231R (Dox-resistant), FIG. 10: after 72 h
  CC50: 36 µM
[5]; resistance induction
  LC50 in MDA-MB-231R cells, times higher than the naïve cells: more than 50 times
[6]
  reduction of cell viability / inhibition of proliferation: 35%
[7]
  LC50: 0.3 µg/mL (≈ 0.552 µM)
[8]
  Cell Viability (%) after 72 h: 119 ± 5%
[8]; 72 h
  toxicity: did not show any toxicity
[9]; 24 h
  cell viability: 79%
[9]; 72 h
  cell viability: 37%
  inhibition of cell viability/proliferation: 63%
[10]; H9C2, 24 h
  reduction of cell survival: 20%
[10]; H9C2, 72 h
  reduction of cell survival: 44%
[10]; H9C2, 96 h
  reduction of cell survival: 44%
[10]; H9C2, time not stated
  reduction of viability of heart cells: 44%
[10]; normal heart H9C2
  Cell Viability (%) after 24 h: 80 ± 2%
  Cell Viability (%) after 72 h: 56 ± 3%
  Cell Viability (%) after 96 h: 56 ± 1%
[11]
  CC50: 0.45 µM
[12]; LLC-PK1, 24 h
  reduction of cell survival: 64%
[12]; LLC-PK1, 72 h
  reduction of cell survival: 77%
[12]; LLC-PK1, time not stated
  reduction of viability of kidney cells: 85%
[12]; normal kidney LLC-PK1
  Cell Viability (%) after 24 h: 44 ± 0% and 48 ± 2%
